Structures can show the parent of a compound that is named as a salt.
What was measured:
[1] = biological target: T1, human kappa opioid receptors (Homo sapiens, UniProt P41145); assay: [35S]GTPγS binding (G protein coupling) assay, antagonism of U69,593; assay type: biochemical; details: CHO-hKOR membranes, 100 nM U69,593, n ≥ 3; for IC50: read-out: IC50 (nM) ± S.E.M. [35S]GTPγS
T1 construct: HA; expressed in transfected cells; host or cells: Chinese hamster ovary (CHO) cells, virally transfected
T1 sequence (P41145 whole entry): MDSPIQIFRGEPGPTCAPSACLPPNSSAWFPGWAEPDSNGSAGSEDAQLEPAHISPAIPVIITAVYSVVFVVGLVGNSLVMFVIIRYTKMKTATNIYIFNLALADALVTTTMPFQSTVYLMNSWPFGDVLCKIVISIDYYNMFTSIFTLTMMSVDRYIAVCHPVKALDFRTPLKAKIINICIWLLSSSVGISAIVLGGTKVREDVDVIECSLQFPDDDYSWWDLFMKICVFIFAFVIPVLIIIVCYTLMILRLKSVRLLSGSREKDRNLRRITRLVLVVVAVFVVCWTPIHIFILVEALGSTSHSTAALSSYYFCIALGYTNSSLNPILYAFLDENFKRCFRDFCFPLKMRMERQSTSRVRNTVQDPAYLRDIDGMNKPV
Experimental: (§1) Chinese hamster ovary (CHO) cells were virally transfected to express HA-tagged recombinant human kappa opioid receptors (CHO-hKOR cell line) and maintained in DMEM/F-12 media (Invitrogen) supplemented with 10% fetal bovine serum, 1% penicillin/streptomycin, and 500 μg/ml geneticin as described in Schmid, C. L.; Streicher, J. M.; Groer, C. E.; Munro, T. A.; Zhou, L.; Bohn, L. M. Functional selectivity of 6′-guanidinonaltrindole (6′-GNTI) at kappa opioid receptors in striatal neurons. […] A DiscoveRx PathHunter™ U2OS cell line expressing βarrestin2 and hKOR (U2OS-hKOR-βarrestin2-DX) was purchased from DiscoveRx Corporation (Fremont, Calif.) and maintained MEM with 10% fetal bovine serum, 1% penicillin/streptomycin, 500 μg/ml geneticin and 250 μg/ml hygromycin B. All cells were grown at 37° C. (5% CO2 and 95% relative humidity).
Briefly, cells were serum starved for 1 hour and membranes were prepared. Each reaction was performed at room temperature and contained 15 μg of membrane protein, 40 μM GDP, ˜0.1 nM [^35S]GTPγS and increasing concentrations of compounds in assay buffer (50 mM Tris-HCl, pH 7.4, 100 mM NaCl, 5 mM MgCl2, 1 mM EDTA). Directly after the addition of test compounds, 100 nM U69,593 was added to yield a total volume of 200 μL. After 1 hour, reactions were quenched by rapid filtration through GF/B filters and radioactivity was counted with a TopCount NXT high throughput screening microplate scintillation and luminescence counter (PerkinElmer Life Sciences).
(§2) All compounds were run in parallel assays in 2-4 replicates per individual experiment. All studies were performed n≥3 independent experiments in multiple replicates. For determination of antagonist inhibition, each individual experiment was normalized to the percentage of maximal U69,593 stimulation. The efficacy and potency values were obtained from the averages of the nonlinear regression analysis performed on each individual curve and are reported as the mean±S.E.M.

[2] = biological target: T1, human kappa opioid receptors; assay: In-cell western ERK1/2 phosphorylation, inhibition of U69,593 induced ERK phosphorylation; assay type: cell-based; details: hKOR-CHO cells, 100 nM U69,593, n ≥ 3; for IC50: read-out: IC50 (nM) ± S.E.M. ERK
Experimental: as §1
Briefly, hKOR-CHO cells were plated in 384-well plate at 15,000 cells per well and incubated at 37° C. overnight. After an hour serum starve, cells were treated with compound followed by the addition of 100 nM U69,593 and a 10 minute incubation at 37° C. Cells were fixed, permeabilized, blocked, and stained with primary antibodies for phosphorylated ERK1/2 and total-ERK1/2 (1:300 and 1:400, respectively) at 4° C. overnight. Cells then incubated with Li-Cor secondary antibodies (anti-rabbit IRDye800CW, 1:500; anti-mouse IRDye680LT, 1:1500) and imaged with the Odyssey Infrared Imager (Li-Cor Biosciences, Lincoln, Nebr.) at 700 and 800 nm.
as §2

hKOR = biological target: T2, hKOR (Homo sapiens, UniProt P41145); assay: βArrestin2 recruitment (DiscoveRx PathHunter) assay; assay type: cell-based; details: for β arrestin 2 Inhibition (% U69,593 Stimulation) 1 μm: compound at 1 μm; for β arrestin 2 Inhibition (% U69,593 Stimulation) 1 μm / β arrestin 2 Inhibition (% U69,593 Stimulation) 10 Nm / β arrestin 2 Inhibition (% U69,593 Stimulation) 100 Nm: set concentration of U69,593; for β arrestin 2 Inhibition (% U69,593 Stimulation) 10 Nm: compound at 10 Nm; for β arrestin 2 Inhibition (% U69,593 Stimulation) 100 Nm: compound at 100 Nm; for IC50: read-out: IC50 (nM) ± S.E.M. βarr2
T2 construct: host or cells: U2OS (PathHunter U2OS-hKOR-βarrestin2-DX), purchased engineered cell line
T2 sequence (P41145 whole entry): as above
Experimental: as §1
Briefly, 5,000 cells/well were plated overnight in Opti-MEM containing 1% fetal bovine serum, 1% penicillin/streptomycin. Cells were pretreated with antagonist for 15 min at 37° C. followed by the addition of 1 μM U69,593 and a 90 minute incubation at 37° C. PathHunter™ detection reagent was added and cells incubated at room temperature for 60 minutes. Chemiluminescence was detected using a SpectraMax® M5e Multimode Plate Reader (Molecular Devices). βarrestin2 recruitment assays were also performed using an imaging platform (Cellomics) to visulalize translocation of a fluorescent protein tagged βarrestin2 to the membrane of KOR expressing U2OS cells.
as §2

C57BL/6 mice = assay: Locomotor activity in open field, alone and against U50,488; assay type: in vivo
[3] = Concentrations in plasma and brain tissue of mice after a single IP dose; details: single 10 mg/kg IP
[4] = mouse brain, single administration; cited from earlier work
[5] = U2OS-hKOR-βarrestin2-DX cells, 1 μM U69,593, n ≥ 3

SMILES	β arrestin 2 Inhibition (% U69,593 Stimulation) 1 μm (hKOR)	β arrestin 2 Inhibition (% U69,593 Stimulation) 10 Nm (hKOR)	β arrestin 2 Inhibition (% U69,593 Stimulation) 100 Nm (hKOR)	IC50 [1] [nM]	IC50 [2] [nM]	IC50 (hKOR; [5]) [nM]	other results
Cc1ccc(S(=O)(=O)N(C)Cc2ccc(C(=O)N(C)CCN(Cc3ccccc3)C(C)C)cc2)cc1 [Compound 1a, N-(2-(Benzyl(isopropyl)amino)ethyl)-N-methyl-4-((N,4-dimethylphenylsulfonamido)methyl)benzamide, reference compound]							IC50 (nM) ± S.E.M. [35S]GTPγS [1]: inactive; IC50 (nM) ± S.E.M. ERK [2]: inactive; IC50 (nM) ± S.E.M. βarr2 (hKOR; [5]): inactive
COc1ccc(CN(CCNC(=O)c2ccc3c(c2)CCN(S(=O)(=O)c2ccc(C)cc2)C3)C(C)(C)C)cc1 [Compound 1b, N-(2-(tert-butyl(4-methoxybenzyl)amino)ethyl)-2-tosyl-1,2,3,4-tetrahydroisoquinoline-6-carboxamide]	0.0 % U69,593 Stimulation	0.0 % U69,593 Stimulation	0.8 % U69,593 Stimulation				
Cc1cc(C)c(S(=O)(=O)N2CCc3cc(C(=O)NCCN(Cc4ccccc4)C(C)C)ccc3C2)c(C)c1 [Compound 1c, N-(2-(Benzyl(isopropyl)amino)ethyl)-2-(mesitylsulfonyl)-1,2,3,4-tetrahydroisoquinoline-6-carboxamide]				113 ± 42	1120	930 ± 150	
CCc1ccc(S(=O)(=O)N2CCc3cc(C(=O)NCCN(Cc4ccc(Br)cc4)C(C)C)ccc3C2)cc1 [Compound 1g, N-(2-((4-Bromobenzyl)(isopropyl)amino)ethyl)-2-((4-ethylphenyl)sulfonyl)-1,2,3,4-tetrahydroisoquinoline-6-carboxamide]				33 ± 11	314 ± 56	350 ± 68	
Cc1ccc(S(=O)(=O)N2CCc3cc(C(=O)NCCN(Cc4ccccc4)C(C)(C)C)ccc3C2)cc1 [Compound 1h, N-(2-(Benzyl(tert-butyl)amino)ethyl)-2-tosyl-1,2,3,4-tetrahydroisoquinoline-6-carboxamide]				5.28 ± 0.6	49.1 ± 9.7	104 ± 8.2	
Cc1ccc(S(=O)(=O)N2CCc3cc(C(=O)NCCN(Cc4ccc(Cl)cc4)C(C)(C)C)ccc3C2)cc1 [Compound 1l, N-(2-((4-Chlorobenzyl)(tert-butyl)amino)ethyl)-2-tosyl-1,2,3,4-tetrahydroisoquinoline-6-carboxamide]	1.5 % U69,593 Stimulation	29.9 % U69,593 Stimulation	0.4 % U69,593 Stimulation				effect of pretreatment on U50,488 hypolocomotion (C57BL/6 mice; 10-minute pretreatment, 10 mg/kg i.p., vs vehicle pretreatment followed by U50,488, FIG. 3): prevents the development of U50,488 hypolocomotion; suppression of locomotor (ambulatory) activity compared to vehicle (C57BL/6 mice; C57BL/6 mice, open field, 1 hour, FIG. 2): not to suppress activity compared to vehicle; clearance from brain tissue ([3]; 4h measurement): almost fully cleared; crossing of the blood brain barrier into the CNS ([3]; brain tissue, within 0.5 h): cross the blood brain barrier into the CNS at concentrations similar to norBNI
Cc1ccc(S(=O)(=O)N2CCc3cc(C(=O)NCCN(Cc4ccc(Br)cc4)C(C)(C)C)ccc3C2)cc1 [Compound 1m, N-(2-((4-Bromobenzyl)(tert-butyl)amino)ethyl)-2-tosyl-1,2,3,4-tetrahydroisoquinoline-6-carboxamide]				2.9 ± 1.2	87 ± 17	93 ± 30	
Cc1cc(C)c(S(=O)(=O)N2CCc3cc(C(=O)NCCN(Cc4ccc(Br)cc4)C(C)(C)C)ccc3C2)c(C)c1 [Compound 1n, N-(2-((4-Bromobenzyl)(tert-butyl)amino)ethyl)-2-(mesitylsulfonyl)-1,2,3,4-tetrahydroisoquinoline-6-carboxamide]				106 ± 16	1340	710 ± 150	
Oc1ccc2c3c1O[C@H]1c4[nH]c5c(c4C[C@@]4(O)[C@@H](C2)N(CC2CC2)CC[C@]314)C[C@@]1(O)[C@H]2Cc3ccc(O)c4c3[C@@]1(CCN2CC1CC1)[C@H]5O4 [norBNI, nor-binaltorphimine dihydrochloride, reference compound]	0.9 % U69,593 Stimulation	0.1 % U69,593 Stimulation	0.6 % U69,593 Stimulation				time after which still detected in brain tissue [4]: more than 21 days; presence in brain tissue ([3]; after 72 h): still significantly present
